{"source": "paper PMC5598403", "about": "(Toxicology Reports, 2014)", "biological_target": "CK2α (protein kinase CK2 catalytic subunit α) (Homo sapiens, UniProt P68400)", "sequence (P68400 whole entry)": "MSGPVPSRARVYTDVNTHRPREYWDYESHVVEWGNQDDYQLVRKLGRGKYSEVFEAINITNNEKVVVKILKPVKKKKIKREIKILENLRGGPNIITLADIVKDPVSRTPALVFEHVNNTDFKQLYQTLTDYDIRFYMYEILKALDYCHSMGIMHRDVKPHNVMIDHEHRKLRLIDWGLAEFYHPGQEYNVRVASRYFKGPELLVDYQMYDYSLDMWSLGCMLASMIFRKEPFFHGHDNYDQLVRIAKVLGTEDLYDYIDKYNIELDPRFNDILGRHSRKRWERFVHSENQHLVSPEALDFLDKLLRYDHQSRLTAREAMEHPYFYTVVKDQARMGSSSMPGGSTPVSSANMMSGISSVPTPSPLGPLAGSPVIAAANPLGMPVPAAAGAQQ", "test": "radiometric [γ-32P]ATP kinase assay with synthetic peptide RRRADDSDDDDD", "format": "biochemical"}
{"smiles": "Oc1c(Cl)c(Cl)c(Cl)c(Cl)c1Cl", "note": "[PCP, pentachlorophenol]", "values": [{"measurement": "IC50", "value": 3.73, "unit": "µM"}]}
